Experiments:
[1] = system: calcium level in the serum; assay: Experiment 1: serum calcium reduction after human calcitonin intravaginal suppository, sucrose fatty acid ester plus citric acid vs each alone; type: in vivo, Wistar rats; settings: for Reduction rate (%) of calcium level in the serum: intravaginal suppository 20 μg, ovariectomized rats
Protocol: To the mixture was added a commercially available base for intravaginal preparation; Witepsol S-55 (which is prepared from Witepsol E-85 so as to give a final intravaginal suppository having a melting point of 36.5° C., manufactured by Hils Co., Ltd., former Diamit Novel Co., Ltd) which was homogenized by previously warming and stirring thereof so as to give an intravaginal suppository with the total weight of 5.00 g. […] The mixture was poured into a tube (inside diameter: about 3 mm) made of teflon at about 40° C., cooled to solidify, and taken out from the tube. The solidified mixture was cut into pieces (weight: 50 mg) to give intravaginal suppositories for rats containing human calcitonin (20 μg/each). There were also obtained two kinds of intravaginal suppositories prepared by adding citric acid (50 mg) only, and prepared by adding a sucrose fatty acid ester (100 mg) only, likewise. There were obtained intravaginal suppositories containing only human calcitonin without citric acid nor a sucrose fatty acid ester, likewise, which are used as control.
(§1) An intravaginal suppository was administered into the rat's vagina, and the blood was collected periodically (2, 4 and 6 hours after administration of the test preparation).
(§2) The serum was separated, and the calcium level in the serum was determined by using a kit for determination of calcium (Calcium C Test Wako; manufactured by Wako Pure Chemical Industries, Ltd.) (n=3).

[2] = system: calcium level in the serum; assay: Experiment 6: effects of the concentration of organic acid on serum calcium reduction; type: in vivo, Wistar rats; settings: for Reduction rate (%) of calcium level in the serum: pH 3.5, + S-970, intravaginal suppository 20 μg, rats
Protocol: as §1, §2
In the same manner as in Experiment 1, each intravaginal suppository was administered to the rat's vagina, and the blood was collected periodically (2, 4 and 6 hours after administration of intravaginal suppository), and the calcium level in the serum thereof was determined (n=3).

Human calcitonin
Reduction rate (%) of calcium level in the serum ([1]; Control: only human calcitonin, no citric acid nor sucrose fatty acid ester, 2 hr): 2.6% | Reduction rate (%) of calcium level in the serum ([1]; Control: only human calcitonin, no citric acid nor sucrose fatty acid ester, 4 hr): 2.2% | Reduction rate (%) of calcium level in the serum ([1]; Control: only human calcitonin, no citric acid nor sucrose fatty acid ester, 6 hr): 3.8% | Reduction rate (%) of calcium level in the serum ([1]; added: citric acid only, 2 hr): 9.5% | Reduction rate (%) of calcium level in the serum ([1]; added: citric acid only, 4 hr): 8.0% | Reduction rate (%) of calcium level in the serum ([1]; added: citric acid only, 6 hr): 5.7% | Reduction rate (%) of calcium level in the serum ([1]; added: sucrose fatty acid ester (S-970) and citric acid, base Witepsol S-55, 2 hr): 14.9% | Reduction rate (%) of calcium level in the serum ([1]; added: sucrose fatty acid ester (S-970) and citric acid, base Witepsol S-55, 4 hr): 19.5% | Reduction rate (%) of calcium level in the serum ([1]; added: sucrose fatty acid ester (S-970) and citric acid, base Witepsol S-55, 6 hr): 11.1% | Reduction rate (%) of calcium level in the serum ([1]; added: sucrose fatty acid ester (S-970) only, 2 hr): 10.6% | Reduction rate (%) of calcium level in the serum ([1]; added: sucrose fatty acid ester (S-970) only, 4 hr): 10.5% | Reduction rate (%) of calcium level in the serum ([1]; added: sucrose fatty acid ester (S-970) only, 6 hr): 10.7% | calcitonin-absorption promotion effects, on the basis of the reduction rate of the calcium level in the serum ([1]; combination of sucrose fatty acid ester and citric acid compared with either only): far superior | calcium level in the blood ([2]; citric acid 1, 2, 5 or 10 w/w % with sucrose fatty acid ester): reduced at any concentration of citric acid to be used | Reduction rate (%) of calcium level in the serum ([2]; organic acid (citric acid) 1 w/w %, 2 hr): 14.6% | Reduction rate (%) of calcium level in the serum ([2]; organic acid (citric acid) 1 w/w %, 4 hr): 15.7% | Reduction rate (%) of calcium level in the serum ([2]; organic acid (citric acid) 1 w/w %, 6 hr): 9.2% | Reduction rate (%) of calcium level in the serum ([2]; organic acid (citric acid) 2 w/w %, 2 hr): 15.3% | Reduction rate (%) of calcium level in the serum ([2]; organic acid (citric acid) 2 w/w %, 4 hr): 18.7% | Reduction rate (%) of calcium level in the serum ([2]; organic acid (citric acid) 2 w/w %, 6 hr): 8.2% | Reduction rate (%) of calcium level in the serum ([2]; organic acid (citric acid) 5 w/w %, 2 hr): 17.9% | Reduction rate (%) of calcium level in the serum ([2]; organic acid (citric acid) 5 w/w %, 4 hr): 19.4% | Reduction rate (%) of calcium level in the serum ([2]; organic acid (citric acid) 5 w/w %, 6 hr): 7.5% | Reduction rate (%) of calcium level in the serum ([2]; organic acid (citric acid) 10 w/w %, 2 hr): 18.4% | Reduction rate (%) of calcium level in the serum ([2]; organic acid (citric acid) 10 w/w %, 4 hr): 19.0% | Reduction rate (%) of calcium level in the serum ([2]; organic acid (citric acid) 10 w/w %, 6 hr): 5.0%

From patent US5776886A, “Intravaginal preparation containing physiologically active peptide” (Teikoku Seiyaku Kabushiki Kaisha, priority 1993, dated 1998)
